The text below walks through data of patent publication US20210038559A1, “CANNABINOIDS AND DERIVATIVES FOR PROMOTING IMMUNOGENICITY OF TUMOR AND INFECTED CELLS” (priority 2018, published 2021).

Where a name gives a salt, the structure may show the parent alone.

The first assay deals with MHC-I expression by COLO 205 cells. The assay can be described thus: cells. The assay is classed as cell-based, human.
Conditions: not given
As for the experimental part: A panel of synthetic cannabinoids (Cayman Chemical, #9002891) was tested for MHC class I-inducing capability in COLO 205 cells as described above. COLO 205 cells were treated with the compounds at a concentration of 35 μM and evaluated for cell surface MHC class I expression after 48 hours. Cells were harvested, stained with MHC-I mAb W6/32 (Thermo Fisher). MHC-I expression was determined by flow cytometry.
Take “1-naphthalenyl[5-(1-naphthalenyl)-1-pentyl-1H-pyrrol-3-yl]-methanone [Example 214]”: the “Induction Fold” value was 1.80 Fold. Take `CS(=O)(=O)O.Cc1c(C(=O)c2cccc3ccccc23)c2cccc3c2n1[C@H](CN1CCOCC1)CO3` [Example 379, [(3R)-2,3-dihydro-5-methyl-3-(4-morpholinylmethyl)pyrrolo[1,2,3-de]-1,4-benzoxazin-6-yl]-1-naphthalenyl-methanone, methanesulfonate]: the “Induction Fold” value was 0.21 Fold. Still for that read-out and setting: the value for `O=C(c1cccc2ccccc12)c1nn(CCCCCF)c2ccccc12` [Example 134, [1-(5-fluoropentyl)-1H-indazol-3-yl]-1-naphthalenyl-methanone] was 2.23 Fold; that for “1-naphthalenyl[1-(4-penten-1-yl)-1H-indol-3-yl]-methanone [Example 73]” was 2.68 Fold; that for `CCCCn1c(C)c(C(=O)c2cccc3ccccc23)c2ccccc21` [Example 122, (1-butyl-2-methyl-1H-indol-3-yl)-1-naphthalenyl-methanone] was 2.31 Fold.

The same assay, now with this note: Homo sapiens, COLO 205, 48 h, MHC-I expression, COLO 205 cells, compounds at 35 μM, 48 hours, flow cytometry (W6/32); read-out: Induction Fold.
Turning to `CCCC(F)Cn1cc(C(=O)C2C(C)(C)C2(C)C)c2ccccc21` (centres unmarked) [Example 153, [1-(2-fluoropentyl)-1H-indol-3-yl] (2,2,3,3-tetramethylcyclopropyl)-methanone], the fold induction at 35 µM was found to be 2.11.

As to `CC(C)(NC(=O)c1c2ccccc2nn1CCCCC#N)c1ccccc1` (single isomer, unassigned) [Example 299, 2-(4-cyanobutyl)-N-(2-phenylpropan-2-yl)-2H-indazole-3-carboxamide], the fold induction at 35 µM was 1.42. Consider `COc1cccc2c(C(=O)N[C@@H]3C(C)(C)[C@@H]4CC[C@@]3(C)C4)c(C)n(CCN3CCOCC3)c12` [Example 295, 7-methoxy-2-methyl-1-[2-(4-morpholinyl)ethyl]-N-[(1S,2S,4R)-1,3,3-trimethylbicyclo[2.2.1]hept-2-yl]-1H-indole-3-carboxamide], for which the fold induction at 35 µM was 1.43. Consider `CCCCCn1cc(C(=O)Oc2ccc3ncccc3c2)c2ccccc21` [Example 256, quinolin-6-yl 1-pentyl-1H-indole-3-carboxylate], for which the fold induction at 35 µM is 1.59. On to `CC(C)[C@H](NC(=O)c1nn(CC2CCCCC2)c2ccccc12)C(N)=O` [Example 67, N-[(1S)-1-(aminocarbonyl)-2-methylpropyl]-1-(cyclohexylmethyl)-1H-indazole-3-carboxamide], for which the fold induction at 35 µM worked out at 2.75.

`O=C(Oc1ccnc2ccccc12)c1cn(CC2CCCCC2)c2ccccc12` [Example 9, quinolin-4-yl 1-(cyclohexylmethyl)-1H-indole-3-carboxylate]: the fold induction at 35 µM was 5.41.

Consider `CCCCCn1cc(C(=O)Oc2cccc3ccncc23)c2ccccc21` [Example 17, isoquinolin-8-yl 1-pentyl-1H-indole-3-carboxylate], for which the fold induction at 35 µM came out at 4.11. The same measure, in the same setting: as for `N#CCCCCn1cc(C(=O)c2cccc3ccccc23)c2ccccc21` [Example 55, 3-(1-naphthalenylcarbonyl)-1H-Indole-1-pentanenitrile], the figure is 2.92; as for `O=C(Oc1ccc2ccccc2c1)c1nn(-c2ccccc2F)c2ccccc12` [Example 332, naphthalen-2-yl 1-(2-fluorophenyl)-1H-indazole-3-carboxylate], 1.21. The same measure, in the same setting: as for `CCCC(F)Cn1cc(C(=O)Nc2cccc3ccccc23)c2ccccc21` (centres unmarked) [Example 296, 1-(2-fluoropentyl)-N-(naphthalen-1-yl)-1H-indole-3-carboxamide], the figure is 1.43; as for `CCCCCn1cc(C(=O)c2cccc3ccccc23)c2ccc(OC)cc21` [Example 175, (6-methoxy-1-pentyl-1H-indol-3-yl)(naphthalen-1-yl)-methanone], 1.95.

As to `O=C(NCC1CC1)c1cn(CCCCCF)c2ccccc12` [Example 357, N-(cyclopropylmethyl)-1-(5-fluoropentyl)-1H-indole-3-carboxamide], the fold induction at 35 µM amounted to 1.03. On to `O=C(c1cn(CCCCCF)c2ccccc12)N1CCN(Cc2ccccc2)CC1` [Example 324, (4-benzylpiperazin-1-yl)(1-(5-fluoropentyl)-1H-indol-3-yl)methanone, monohydrochloride], for which the fold induction at 35 µM is 1.26. Regarding `CCCC(F)Cn1cc(C(=O)Oc2cccc3cccnc23)c2ccccc21` (centres unmarked) [Example 83, quinolin-8-yl 1-(2-fluoropentyl)-1H-indole-3-carboxylate], the fold induction at 35 µM is 2.54. In the case of `CCC(F)CCn1cc(C(=O)Nc2cccc3ccccc23)c2ccccc21` (centres unmarked) [Example 338, 1-(3-fluoropentyl)-N-(naphthalen-1-yl)-1H-indole-3-carboxamide], the fold induction at 35 µM was determined as 1.19. For the compound `O=C(Oc1cccc2ccncc12)c1cn(CCCCCF)c2ccccc12` [Example 16, isoquinolin-8-yl 1-(5-fluoropentyl)-1H-indole-3-carboxylate], the fold induction at 35 µM is 4.19.

With `CCCCCc1cc(OC)c2cc(Cc3ccccc3OC)c(=O)oc2c1` [Example 200, 5-methoxy-3-[(2-methoxyphenyl)methyl]-7-pentyl-2H-1-benzopyran-2-one], the fold induction at 35 µM worked out at 1.88.

Turning to `Cc1c(C(=O)C2C(C)(C)C2(C)C)c2ccccc2n1CCCCCF` [Example 126, (1-(5-fluoropentyl)-2-methyl-1H-indol-3-yl)(2,2,3,3-tetramethylcyclopropyl)methanone], the fold induction at 35 µM was 2.29. The same measure, in the same setting: as for `CCCCCn1cc(C(=O)Cc2cccc(Cl)c2)c2ccccc21` [Example 86, 2-(3-chlorophenyl)-1-(1-pentyl-1H-indol-3-yl)-ethanone], the figure is 2.51; as for `CCCCCCC(C)(C)c1ccc([C@@H]2C[C@@H](O)CC[C@H]2CCCO)c(O)c1` (relative stereo) [Example 375, rel-2-((1R,2R,5S)-5-hydroxy-2-(3-hydroxypropyl)cyclohexyl)-5-(2-methyloctan-2-yl)phenol], 0.33; as for `O=C(NC12CC3CC(CC(C3)C1)C2)c1cn(CCCCCF)c2ccccc12` [Example 144, 1-(5-fluoropentyl)-N-tricyclo[3.3.1.13,7] dec-1-yl-1H-indole-3-carboxamide], 2.17.

For the compound `CC(C)[C@H](NC(=O)c1cc(-c2ccc(F)cc2)nn1CCCCCF)C(N)=O` [Example 321, (S)-N-(1-amino-3-methyl-1-oxobutan-2-yl)-1-(5-fluoropentyl)-3-(4-fluorophenyl)-1H-pyrazole-5-carboxamide], the fold induction at 35 µM came to 1.29. Same read-out and setting: as for `CCCC(C)n1cc(C(=O)c2cccc3ccccc23)c2ccccc21` (centres unmarked) [Example 187, naphthalen-1-yl(1-(pentan-2-yl)-1H-indol-3-yl)methanone], the figure is 1.9; as for `NC(=O)[C@H](Cc1ccccc1)NC(=O)c1nn(CC2CCCCC2)c2ccccc12` [Example 29, N-[(1S)-2-amino-2-oxo-1-(phenylmethyl)ethyl]-1-(cyclohexylmethyl)-1H-Indazole-3-carboxamide], 3.41; as for `O=C(Nc1cccc2ccccc12)c1cn(CCCCCF)c2ccncc12` [Example 373, 1-(5-fluoropentyl)-N-(naphthalen-1-yl)-1H-pyrrolo[3,2-c]pyridine-3-carboxamide], 0.49. In the case of `CCCCCn1cc(C(=O)c2ccc(OC)cc2)c2ccccc21` [Example 129, (4-methoxyphenyl)(1-pentyl-1H-indol-3-yl)methanone], the fold induction at 35 µM was found to be 2.27. Take `CC(C)(C)Cn1cc(C(=O)c2cccc3ccccc23)c2ccccc21` [Example 49, naphthalen-1-yl(1-neopentyl-1H-indol-3-yl)-methanone]: the fold induction at 35 µM was 3. Turning to `CC(C)(NC(=O)c1nn(CCCCCF)c2ccccc12)c1ccccc1` [Example 228, 1-(5-fluoropentyl)-N-(1-methyl-1-phenylethyl)-1H-indazole-3-carboxamide], the fold induction at 35 µM came out at 1.72.

In the case of `O=C(c1cccc2ccccc12)c1cn(CCCCCCl)c2ccccc12` [Example 177, (1-(5-chloropentyl)-1H-indol-3-yl)(naphthalen-1-yl)methanone], the fold induction at 35 µM was 1.94. As for `CC1(C)C(C(=O)c2cn(Cc3ccc(F)cc3)c3ccccc23)C1(C)C` [Example 62, (1-(4-fluorobenzyl)-1H-indol-3-yl)(2,2,3,3-tetramethylcyclopropyl)methanone], the fold induction at 35 µM was 2.79. The same measure, in the same setting: as for `CC(C)(C)n1cc(C(=O)c2cccc3ccccc23)c2ccccc21` [Example 336, (1-(tert-butyl)-1H-indol-3-yl)(naphthalen-1-yl)methanone], the figure is 1.2. For `CCCCCn1cc(C(=O)c2cccc3cccc(Cl)c23)c2ccccc21` [Example 50, (8-chloronaphthalen-1-yl)(1-pentyl-1H-indol-3-yl)methanone], the fold induction at 35 µM came to 3. For `Cc1ccc(C(=O)c2cn(CCN3CCOCC3)c3ccccc23)c2ccccc12` [Example 203, (4-methyl-1-naphthalenyl)[1-[2-(4-morpholinyl)ethyl]-1H-indol-3-yl]-methanone], the fold induction at 35 µM came to 1.87.

The same assay, now with this note: MHC-I expression, COLO 205 cells, compounds at 35 μM, 48 hours, flow cytometry (W6/32).
Take `O=C(OC12CC3CC(CC(C3)C1)C2)c1nn(CCCCCF)c2ccccc12` [Example 358, (3s,5s,7s)-adamantan-1-yl 1-(5-fluoropentyl)-1H-indazole-3-carboxylate]: the “Induction Fold” value was determined as 1.02 Fold. Same read-out and setting: as for `CCCCCn1cc(C(=O)C23CC4CC(CC(C4)C2)C3)c2ccccc21` [Example 245, (1s,3s)-adamantan-1-yl(1-pentyl-1H-indol-3-yl)methanone], the figure is 1.66 Fold. The same measure, in the same setting: as for `O=C(NC12CC3CC(CC(C3)C1)C2)c1nn(CCCCCF)c2ccccc12` [Example 309, N-((3s,5s,7s)-adamantan-1-yl)-1-(5-fluoropentyl)-1H-indazole-3-carboxamide], the figure is 1.37 Fold.
